Common to all, as to assay type: cell-based
Series [1] has as its system Staphylococcus aureus MSSA (Newman). Kind of series: broth microdilution MIC assay, Staphylococcus aureus MSSA (Newman). To be noted: for MIC: Staphylococcus aureus; for Antibacterial activity Staphylococcus aureus (MSSA): MIC100 class score, broth microdilution. For orientation: Broth dilution looks for growth in wells or tubes with falling amounts of substance.
In series [2] the test system is penicillin-, erythromycin- and tetracycline-resistant Streptococcus pneumoniae (ATCC 700677), ARSP. Kind of series: microbe, parasite or virus in culture.
The test system of series [3] is Bacillus subtilis (Marburg strain, ATCC6051). Kind of series: microbe, parasite or virus in culture. To be noted: ATCC6051, read-out: Antibacterial activity BS (Bacillus substilis).
For series [4], the system named is Human hepatocytes (HepaRG cells). Kind of series: human cytotoxicity assay in vitro (CellTiter-Glo), hepatocytes. To be noted: cytotoxicity class. In general terms: ATP-based viability assays read luminescence as a measure of living cells.
Series [5] relates to Staphylococcus aureus MRSA (COL). As to the kind of experiment: broth microdilution MIC assay, Staphylococcus aureus MRSA (COL). To be noted: for MIC: Staphylococcus aureus, MRSA.
The test system of series [6] is Staphylococcus epidermidis (PCI 1200, ATCC12228). As to the kind of experiment: broth microdilution MIC assay, Staphylococcus epidermidis. To be noted: ATCC12228, read-out: Antibacterial activity SE (Staphylococcus epidermidis).
In series [7] the test system is Streptococcus pneumoniae (Chester, ATCC49619). Kind of series: broth microdilution MIC assay, Streptococcus pneumoniae. To be noted: MIC100 class score, 24 h.
Where [8] appears, read: 24 h, read-out: Antibacterial activity Staphylococcus aureus (MSSA).
Where [9] appears, read: read-out: Antibacterial activity MSSA (Staphylococcus aureus MSSA).
[10] abbreviates: ATCC700677, MIC activity class, read-out: Antibacterial activity ARSP (multi-drug resistant-SP).
Setting [11] is: 24 h, read-out: Antibacterial activity Staphylococcus aureus (MRSA).
[12] abbreviates: read-out: Antibacterial activity MRSA (Staphylococcus aureus MRSA).
Setting [13] is: MIC100 class score, broth microdilution, 24 h, read-out: Antibacterial activity Staphylococcus aureus (MRSA).
Setting [14] is: MIC100 class score, broth microdilution, 24 h.

In brackets after ≈: the same amount, converted by molar mass. Like-named read-outs stand apart in the source and are kept apart here.

For `Cc1nc(-c2ccc(-c3cc(F)ccc3C(F)(F)F)o2)[nH]c1-c1ccccc1` [Compound 31a], the MIC in series [1] (setting [8]) was 20 to 50 µg/mL (≈ 51.8 to 129 µM); in series [1] (setting [9]) it was 20 to 50 µg/mL (≈ 51.8 to 129 µM); in series [2] (setting [10]), 2 to 5 µg/mL (≈ 5.18 to 12.9 µM); in series [3], 20 to 50 µg/mL (≈ 51.8 to 129 µM). Moreover, the “cytotoxicity cell line H (hepatocytes)” value in series [4] is 2.

Consider `Cc1nc(-c2ccc(-c3cc(C(F)(F)F)cc(C(F)(F)F)c3)o2)[nH]c1-c1ccccc1` [Compound 35], for which the MIC lay within 3 to 10 µg/mL (≈ 6.88 to 22.9 µM) in series [1] (setting [8]); 3 to 10 µg/mL (≈ 6.88 to 22.9 µM) in series [1] (setting [9]); 20 to 50 µg/mL (≈ 45.8 to 115 µM) in series [5] (setting [11]); 20 to 50 µg/mL (≈ 45.8 to 115 µM) in series [5] (setting [12]); 6 to 10 µg/mL (≈ 13.8 to 22.9 µM) in series [2] (setting [10]); 20 to 50 µg/mL (≈ 45.8 to 115 µM) in series [6]. The MIC in series [3] lay within 3 to 10 µg/mL (≈ 6.88 to 22.9 µM).

`Cc1[nH]c(-c2ccc(-c3ccc(Cl)c(C(F)(F)F)c3)o2)nc1-c1ccccc1` [Compound 39]: the MIC in series [1] (setting [8]) fell in the range of 3 to 10 µg/mL (≈ 7.45 to 24.8 µM); in series [1] (setting [9]), 1 to 3 µg/mL (≈ 2.48 to 7.45 µM); in series [5] (setting [12]), 3 to 10 µg/mL (≈ 7.45 to 24.8 µM); in series [5] (setting [13]), 3 to 10 µg/mL (≈ 7.45 to 24.8 µM); in series [2] (setting [10]), 2 to 5 µg/mL (≈ 4.97 to 12.4 µM); in series [6] it was 1 to 3 µg/mL (≈ 2.48 to 7.45 µM). Besides, in series [3], the MIC lay within 3 to 10 µg/mL (≈ 7.45 to 24.8 µM).

`Cc1nc(-c2ccc(-c3ccc(Cl)c(OC(F)(F)F)c3)o2)[nH]c1-c1ccccc1` [Compound 41]: the MIC in series [1] (setting [8]) is 3 to 10 µg/mL (≈ 7.16 to 23.9 µM); in series [1] (setting [9]) it was 3 to 10 µg/mL (≈ 7.16 to 23.9 µM); in series [5] (setting [11]) it was 3 to 10 µg/mL (≈ 7.16 to 23.9 µM); in series [5] (setting [12]), 3 to 10 µg/mL (≈ 7.16 to 23.9 µM); in series [2] (setting [10]) it was less than 1 µg/mL; in series [6], 11 to 201 µg/mL (≈ 26.3 to 480 µM). Moreover, the MIC in series [3] fell in the range of 3 to 10 µg/mL (≈ 7.16 to 23.9 µM). Besides, the “cytotoxicity cell line H (hepatocytes)” value in series [4] stood at 2.

Turning to `Cc1[nH]c(-c2ccc(-c3ccc(Cl)c(C(F)(F)F)c3)o2)nc1-c1ccc(F)cc1` [Compound 42], the MIC in series [1] (setting [9]) is 1 to 3 µg/mL (≈ 2.38 to 7.13 µM); in series [2] (setting [10]), less than 1 µg/mL; in series [6], 3 to 10 µg/mL (≈ 7.13 to 23.8 µM); in series [3] it was 1 to 3 µg/mL (≈ 2.38 to 7.13 µM).

Turning to `Cc1nc(-c2ccc(-c3ccc(Cl)c(OC(F)(F)F)c3)o2)[nH]c1-c1ccc(F)cc1` [Compound 43], the “Antibacterial activity Staphylococcus aureus (MSSA)” value in series [1] (24 h) is reported as 3 (MIC100 of 3-10 μg/ml). The MIC in series [1] (setting [9]) is 3 to 10 µg/mL (≈ 6.87 to 22.9 µM); in series [5] (setting [12]), 11 to 201 µg/mL (≈ 25.2 to 460 µM); in series [2] (setting [10]), less than 1 µg/mL; in series [6] it was 20 to 50 µg/mL (≈ 45.8 to 114 µM); in series [3], 3 to 10 µg/mL (≈ 6.87 to 22.9 µM). For the same molecule, in series [5] (setting [14]), the “Antibacterial activity Staphylococcus aureus (MRSA)” value is reported as 2 (MIC100 of 11-201 μg/ml). Moreover, in series [4], the “cytotoxicity cell line H (hepatocytes)” value was found to be 3.

As to `Cc1nc(-c2ccc(-c3ccc(Cl)c(OC(F)(F)F)c3)o2)[nH]c1-c1ccc(Cl)cc1` [Compound 44], the MIC was 1 to 3 µg/mL (≈ 2.21 to 6.62 µM) in series [1] (setting [9]), 11 to 201 µg/mL (≈ 24.3 to 443 µM) in series [5] (setting [12]), 11 to 201 µg/mL (≈ 24.3 to 443 µM) in series [6] and 1 to 3 µg/mL (≈ 2.21 to 6.62 µM) in series [3]. In addition, the “Antibacterial activity Staphylococcus aureus (MRSA)” value in series [5] (setting [14]) is recorded as 2 (MIC100 of 11-201 μg/ml). Moreover, the “cytotoxicity cell line H (hepatocytes)” value in series [4] is listed as 2.

Regarding `Cc1[nH]c(-c2ccc(-c3ccc(C(F)(F)F)cc3)o2)nc1-c1ccccc1` [Compound 45], the MIC in series [1] (setting [8]) is 3 to 10 µg/mL (≈ 8.14 to 27.1 µM); in series [1] (setting [9]), 3 to 10 µg/mL (≈ 8.14 to 27.1 µM); in series [5] (setting [12]) it was 11 to 201 µg/mL (≈ 29.9 to 546 µM); in series [5] (setting [13]), 3 to 10 µg/mL (≈ 8.14 to 27.1 µM); in series [2] (setting [10]), 2 to 5 µg/mL (≈ 5.43 to 13.6 µM); in series [6], 3 to 10 µg/mL (≈ 8.14 to 27.1 µM). Moreover, the MIC in series [3] was 3 to 10 µg/mL (≈ 8.14 to 27.1 µM).

In the case of `Cc1[nH]c(-c2ccc(-c3ccc(OC(F)(F)F)cc3)o2)nc1-c1ccc(Cl)cc1` [Compound 48], the “Antibacterial activity Staphylococcus aureus (MSSA)” value in series [1] (24 h) is recorded as 3 (MIC100 of 3-10 μg/ml). In addition, the MIC was 3 to 10 µg/mL (≈ 7.16 to 23.9 µM) in series [1] (setting [9]); 3 to 10 µg/mL (≈ 7.16 to 23.9 µM) in series [5] (setting [12]); less than 1 µg/mL in series [2] (setting [10]); 11 to 201 µg/mL (≈ 26.3 to 480 µM) in series [6]; 3 to 10 µg/mL (≈ 7.16 to 23.9 µM) in series [3]. The “cytotoxicity cell line H (hepatocytes)” value in series [4] is given as 2.

Consider `Cc1[nH]c(-c2ccc(-c3ccc(C(F)(F)F)c(Cl)c3)o2)nc1-c1ccc(F)cc1` [Compound 49], for which the “Antibacterial activity Streptococcus pneumoniae” value in series [7] is 3 (MIC100 of 2-5 μg/ml). In addition, in series [1] (24 h), the “Antibacterial activity Staphylococcus aureus (MSSA)” value is 3 (MIC100 of 3-10 μg/ml). Also, the MIC in series [1] (setting [9]) is 3 to 10 µg/mL (≈ 7.13 to 23.8 µM); in series [5] (setting [12]), 3 to 10 µg/mL (≈ 7.13 to 23.8 µM); in series [2] (ATCC700677, read-out: Antibacterial activity ARSP (multi-drug resistant-SP)), less than 1 µg/mL; in series [6], 11 to 201 µg/mL (≈ 26.1 to 478 µM). Further, in series [5] (setting [14]), the “Antibacterial activity Staphylococcus aureus (MRSA)” value is 2 (MIC100 of 11-201 μg/ml). The “cytotoxicity cell line H (hepatocytes)” value in series [4] is given as 3.

`Cc1[nH]c(-c2ccc(-c3ccc(OC(F)(F)F)cc3Cl)o2)nc1-c1ccc(F)cc1` [Compound 51]: the “Antibacterial activity Streptococcus pneumoniae” value in series [7] is reported as 3 (MIC100 of 2-5 μg/ml). The “Antibacterial activity Staphylococcus aureus (MSSA)” value in series [1] (24 h) is 2 (MIC100 of 11-201 μg/ml). Besides, the MIC in series [1] (setting [9]) fell in the range of 11 to 201 µg/mL (≈ 25.2 to 460 µM); in series [5] (setting [12]), 20 to 50 µg/mL (≈ 45.8 to 114 µM); in series [2] (setting [10]) it was 2 to 5 µg/mL (≈ 4.58 to 11.4 µM); in series [6] it was 20 to 50 µg/mL (≈ 45.8 to 114 µM); in series [3] it was 3 to 10 µg/mL (≈ 6.87 to 22.9 µM). The “cytotoxicity cell line H (hepatocytes)” value in series [4] was determined as 3.

Take `FC(F)(F)Oc1ccccc1-c1ccc(-c2nc(Cl)c(-c3ccccc3)[nH]2)o1` [Compound 64]: in series [1] (24 h), the “Antibacterial activity Staphylococcus aureus (MSSA)” value is listed as 2 (MIC100 of 11-201 μg/ml). The MIC fell in the range of 3 to 10 µg/mL (≈ 7.41 to 24.7 µM) in series [1] (setting [9]); 20 to 50 µg/mL (≈ 49.4 to 124 µM) in series [5] (setting [12]); 2 to 5 µg/mL (≈ 4.94 to 12.4 µM) in series [2] (setting [10]); 20 to 50 µg/mL (≈ 49.4 to 124 µM) in series [6]; 20 to 50 µg/mL (≈ 49.4 to 124 µM) in series [3]. Moreover, the “cytotoxicity cell line H (hepatocytes)” value in series [4] is on record as 3.

Source of the values: patent US10322110B2, “Imidazole-based antimicrobial agents” (priority 2014, dated 2019).
